± gives the expanded uncertainty stated by the source.
Columns and labels:
[1] = refractive index (Na D-line) (dimensionless); settings: 298.15 K; 101.33 kPa; Liquid; Standard Abbe refractometry
[2] = 298.15 K, 101.33 kPa, Liquid

`CCCCCCCC[n+]1ccn(C)c1.F[B-](F)(F)F` [1-methyl-3-octylimidazolium tetrafluoroborate] gave a refractive index [1] of 1.43329 ± 0.00069 and a mass density ([2]; Vibrating tube method) of 1104.42 ± 2.3 kg/m3.

`CCCCCCCCCCCC` [dodecane] showed a refractive index [1] of 1.42011 ± 0.0004 and a mass density [2] of 745.32 ± 0.91 kg/m3.

With `CCCCCCC` [heptane] the refractive index [1] was 1.38517 ± 0.00036 and the mass density [2] was 679.466 ± 0.66 kg/m3.

`CCCCCCCCCCCCCCCC` [hexadecane] gave a refractive index [1] of 1.43232 ± 0.0004 and a mass density [2] of 771.15 ± 0.85 kg/m3.

For `c1ccsc1` [thiophene], the refractive index [1] was 1.52581 ± 0.00036 and the mass density [2] was 1058.5 ± 0.28 kg/m3.

— the NIST ThermoML archive (doi:10.1016/j.jct.2008.01.025)
